# In article PMC11206245 (Pharmaceuticals, 2024):
# “Also recorded” adds a separate entry of the source. Like-named read-outs stand apart in the source and are kept apart here.
# Experiment: Study A dose-escalation protocol: 17-AAG pharmacokinetics in plasma (HPLC)
# Assay type: in vivo
# Details: dogs; for AUC / Cmax / half-life: female, dog; for AUC: AUC0–8h; for half-life: read-out: t½ (converted)
# Experimental: In Studies A and B, an intravenous catheter was placed in the cephalic vein of each animal’s right and left anterior limbs. […] Under both protocols, blood samples were centrifuged at 1500× g at 4 °C for 10 min.
# For the mobile phase, acetonitrile (ACN, J.T.Baker®, Philadelphia, PA, USA) and water with 1% acetic acid (J.T.Baker®)were used. Briefly, aliquots of 200 µL of plasma or 100 µL of subcutaneous interstitial liquid were placed in a 1.5 mL microcentrifuge tube. Subsequently, 600 µL and 300 µL of ACN were added to all plasma and subcutaneous interstitial liquid samples, respectively. The mixture was vortexed for 30 s, followed by centrifugation at 3400× g for 10 min. Next, 500 µL of the plasma supernatant and 250 µL of the subcutaneous interstitial fluid were pipetted into a new vial. The method was validated in accordance with the International Council for Harmonization (ICH) technical requirements for the evaluation of medicinal products. […] No matrix interferences were observed. Two calibrated plasma curves of 17-AAG were validated with different injection volumes. […] Data acquisition and processing were performed using LabSolutions software (Version 5.3).
# Cmax, half-life (t ½), distribution volume, and clearance were also determined. Data were analyzed in Excel and WinNonlin using a mono-compartmental model.
# [1] = Study A, plasma, single IV dose 50 mg/m^2, mean ± SD
# [2] = Study A, plasma, single IV dose 100 mg/m^2, mean ± SD
# [3] = Study A, plasma, single IV dose 150 mg/m^2, mean ± SD
# [4] = Study A, plasma, single IV dose 200 mg/m^2, mean ± SD
# [5] = Study A, plasma, single IV dose 250 mg/m^2, mean ± SD
# [6] = 50 mg/m2, Study A, plasma, single IV dose 50 mg/m^2, mean ± SD
# [7] = 100 mg/m2, Study A, plasma, single IV dose 100 mg/m^2, mean ± SD
# [8] = 150 mg/m2, Study A, plasma, single IV dose 150 mg/m^2, mean ± SD
# [9] = 200 mg/m2, Study A, plasma, single IV dose 200 mg/m^2, mean ± SD
# [10] = 250 mg/m2, Study A, plasma, single IV dose 250 mg/m^2, mean ± SD
compound,measurement,setting,value
"C=CCNC1=C2C[C@@H](C)C[C@H](OC)[C@H](O)[C@@H](C)/C=C(\C)[C@H](OC(N)=O)[C@@H](OC)/C=C\C=C(/C)C(=O)NC(=CC1=O)C2=O [17-AAG, 17-(allylamino)-17-demethoxygeldanamycin]","Clearance from plasma, on average","Study A, average over doses 50–250 mg/m^2",0.026 ± 0.010 L/h/m^2
same,Dose-proportionality of Cmax and AUC,"Study A, plasma, IV doses 50–250 mg/m^2",linear correlation between doses ranging from 50 to 200 mg/m^2; also recorded: dose-proportionate between the 50 and 200 mg/m^2 doses
same,Clearance,[1],0.04 ± 0.02 L/m^2/h
same,DV (distribution volume),[1],0.03 ± 0.02 L/m^2
same,Clearance,[2],0.03 ± 0.01 L/m^2/h
same,DV (distribution volume),[2],0.02 ± 0.01 L/m^2
same,Clearance,[3],0.02 ± 0.00 L/m^2/h
same,DV (distribution volume),[3],0.02 ± 0.00 L/m^2
same,Clearance,[4],0.02 ± 0.00 L/m^2/h
same,DV (distribution volume),[4],0.02 ± 0.00 L/m^2
same,Clearance,[5],0.03 ± 0.01 L/m^2/h
same,DV (distribution volume),[5],0.02 ± 0.00 L/m^2
same,"maximum plasma concentration (Cmax), lower end of range","abstract, after single IV doses 50–250 mg/m^2",1405 ± 686 ng/mL
same,AUC,[6],1480 ± 695 ng·h/mL
same,Cmax,"50 mg/m2, Study A, plasma, single IV dose 50 mg/m^2, mean ± SD, read-out: Cmax",1410 ± 687 ng/mL
same,half-life,[6],32.4 ± 1.8 min
same,AUC,[7],4380 ± 1630 ng·h/mL
same,Cmax,"100 mg/m2, Study A, plasma, single IV dose 100 mg/m^2, mean ± SD, read-out: Cmax",3760 ± 1420 ng/mL
same,half-life,[7],36.6 ± 4.8 min
same,AUC,[8],7930 ± 1550 ng·h/mL
same,Cmax,"150 mg/m2, Study A, plasma, single IV dose 150 mg/m^2, mean ± SD, read-out: Cmax",6940 ± 1340 ng/mL
same,half-life,[8],35.4 ± 2.4 min
same,AUC,[9],11900 ng·h/mL
same,Cmax,"200 mg/m2, Study A, plasma, single IV dose 200 mg/m^2, mean ± SD, read-out: Cmax",9440 ± 991 ng/mL
same,half-life,[9],40.2 ± 3 min
same,AUC,[10],9630 ± 2670 ng·h/mL
same,Cmax,"250 mg/m2, Study A, plasma, single IV dose 250 mg/m^2, mean ± SD, read-out: Cmax",8610 ± 1060 ng/mL
same,half-life,[10],34.2 ± 12.6 min
same,Cmax,"plasma, abstract, after single IV doses 50–250 mg/m^2, read-out: maximum plasma concentration (Cmax), upper end of range",9440 ± 991 ng/mL
